{"source": "patent US20190119348A1", "about": "“PARATHYROID HORMONE RECEPTOR 1 ANTAGONIST AND INVERSE AGONIST POLYPEPTIDES AND METHODS OF THEIR USE” (The General Hospital Corporation, priority 2016, published 2019)", "target": "T1, endogenous hPTHR1 (Homo sapiens, UniProt Q03431)", "T1 construct": "Saos-2, in which is endogenously expressed the hPTHR1; endogenous in cells", "T1 sequence (Q03431 27-593)": "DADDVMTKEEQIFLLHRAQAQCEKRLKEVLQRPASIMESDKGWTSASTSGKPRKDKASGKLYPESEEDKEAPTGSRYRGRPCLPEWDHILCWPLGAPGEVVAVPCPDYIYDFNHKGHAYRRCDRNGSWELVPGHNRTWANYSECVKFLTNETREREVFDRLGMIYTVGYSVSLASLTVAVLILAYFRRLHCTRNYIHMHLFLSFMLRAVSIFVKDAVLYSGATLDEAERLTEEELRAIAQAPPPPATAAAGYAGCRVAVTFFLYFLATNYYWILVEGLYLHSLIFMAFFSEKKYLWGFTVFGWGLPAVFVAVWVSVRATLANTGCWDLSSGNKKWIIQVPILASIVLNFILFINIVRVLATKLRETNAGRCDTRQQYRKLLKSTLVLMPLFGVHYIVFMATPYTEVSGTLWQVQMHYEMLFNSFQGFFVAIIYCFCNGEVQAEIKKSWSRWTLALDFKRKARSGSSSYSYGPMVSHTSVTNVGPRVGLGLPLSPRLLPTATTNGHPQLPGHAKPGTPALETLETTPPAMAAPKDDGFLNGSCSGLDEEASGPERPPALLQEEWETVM", "assay": "Antagonism of PTH(1-34)- and PTHrP(1-36)-induced cAMP response (GloSensor) in SGS-72 cells", "format": "cell-based", "settings": "IC50 PTH(1-34) (Table 6, nanomolar value), antagonist pre-treatment 15 minutes, PTH(1-34) 0.3 nM", "summary_of_the_method": "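SaOS2-derived SGS-72 cells, which express endogenous hPTHR1 and a stable GloSensor cAMP reporter, were loaded with 0.5 mM luciferin for 15 min at room temperature in CO2-independent medium with 0.1% BSA. Antagonist was tested against PTH(1-34) or PTHrP(1-36), with luminescence taken at the agonist-alone maximum; pIC50 came from four-parameter fits.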", "note": "Where a SMILES comes first, the peptide text is derived from it. [ ]: non-standard residue; d: D form.", "data": [{"compound": "CC[C@H](C)[C@H](N)C(=O)N[C@@H](CCC(N)=O)C(=O)N[C@@H](CC(C)C)C(=O)N[C@@H](CCSC)C(=O)N[C@@H](Cc1c[nH]cn1)C(=O)N[C@@H](CCC(N)=O)C(=O)N[C@@H](CC(C)C)C(=O)N[C@H](Cc1c[nH]c2ccccc12)C(=O)N[C@@H](CCCCN)C(=O)N[C@@H](Cc1c[nH]c2ccccc12)C(=O)N[C@H](C(=O)N[C@@H](CCC(N)=O)C(=O)N[C@@H](CC(=O)O)C(=O)N[C@@H](C)C(=O)N[C@@H](CCCNC(=N)N)C(=O)N[C@@H](CCCNC(=N)N)C(=O)N[C@@H](CCCNC(=N)N)C(=O)N[C@@H](C)C(=O)N[C@@H](Cc1c[nH]c2ccccc12)C(=O)N[C@@H](CC(C)C)C(=O)N[C@@H](Cc1c[nH]cn1)C(=O)N[C@@H](CCCCN)C(=O)N[C@@H](CC(C)C)C(=O)N[C@H](C(=O)N[C@@H](C)C(=O)N[C@@H](CCC(=O)O)C(=O)N[C@H](C(=O)N[C@@H](Cc1c[nH]cn1)C(=O)N[C@H](C(=O)N[C@@H](C)C(=O)N[C@@H](CCC(=O)O)C(=O)N[C@H](C(N)=O)[C@@H](C)CC)[C@@H](C)O)[C@@H](C)CC)[C@@H](C)CC)[C@@H](C)CC", "note": "[compound 2003, L11, dW12, W23-LA-PTH(5-36)-2003] (H-IQLMHQL[dW]KWIQDARRRAWLHKLIAEIHTAEI-NH2; N-terminus assumed)", "values": [{"measurement": "IC50", "result": 2.57, "unit": "nM"}]}]}
